Here are results for 4 molecules from ChEMBL document CHEMBL1201862, “PubChem BioAssay data set” (2004).

Among the test systems are BT-549; DLD-1; M19-MEL; RXF 631; HOP-18; SNB-78; DMS-114; KM-20L2; LXFL 529.
What all share (test): NCI anticancer screen, dose series, 48 h

Structures are written as SMILES.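 Method: 48-hour compound exposure of cells in 96-well plates, five concentrations, linear interpolation of endpoints. At the GI50, growth is halved.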 The source made the active and inactive calls. Rule as the data show it: active = GI50 up to about 1.1 µM and inactive = higher. A value given as a limit tells only on which side of the number the result lay.

Regarding `COc1ccccc1/C=C1\CCC(Cc2ccccc2)(CN(C)C)C1=O` (centres undefined), the GI50 in the assay with BT-549 is 5 µM (inactive); with DLD-1 it was 0.414 µM (active); with M19-MEL, 2.98 µM (inactive); in the assay on RXF 631, 1.85 µM (inactive); in the assay on HOP-18, > 26.4 µM (inactive); in the assay with SNB-78 it was 2.13 µM (inactive). The GI50 is 2.23 µM (inactive) in the assay on DMS-114, 0.644 µM (active) in the assay with KM-20L2 and 4.55 µM (inactive) with LXFL 529.
For `COC(=O)C(C)(C)/N=C/N(C)C`, the GI50 with DLD-1, in the assay on M19-MEL, in the assay on RXF 631, with HOP-18, in the assay on SNB-78 and with DMS-114 was > 100 µM (inactive) in each case. For the same molecule, the GI50 with KM-20L2 and with LXFL 529 was > 100 µM (inactive) each time.
Turning to `COc1cccc(/C=C2\CCC(CN(C)C)C2=O)c1` (centres undefined), the GI50 with BT-549 is 3.91 µM (inactive); in the assay on DLD-1, 2.8 µM (inactive); in the assay on M19-MEL, 4.84 µM (inactive); with RXF 631, 6.59 µM (inactive); in the assay on HOP-18 it was 18.6 µM (inactive); with SNB-78 it was 21.7 µM (inactive). Further, the GI50 in the assay on DMS-114 is 13.9 µM (inactive); in the assay with KM-20L2, 15.8 µM (inactive); in the assay on LXFL 529 it was 2.5 µM (inactive).
For `O=C(Nc1ccc(Nc2ccc(NC(=O)c3ccccc3)c3c2C(=O)c2ccccc2C3=O)c2c1C(=O)c1ccccc1C2=O)c1ccccc1`, the GI50 with DLD-1, with M19-MEL, in the assay with RXF 631, in the assay with HOP-18, in the assay on SNB-78 and in the assay on DMS-114 was > 100 µM (inactive) each time. Besides, the GI50 with KM-20L2 and with LXFL 529 was > 100 µM (inactive) throughout.
